Our source for the T/C values is PubChem BioAssay AID296 (DTP/NCI, 2004).

Several values for one entry are separate records, joined by “and”; a condition that tells them apart may be missing. Equal entries are not always repeated. Records with an inconclusive call do not appear.

The experiment has as its system MX-1 breast xenograft, nude mice, tumor weight T/C. Put plainly: NCI In Vivo Anticancer Drug Screen. Data for tumor model Human Mammary Carcinoma MX-1 Xenograft (intrarenal inoculation) in NU/NU Swiss (nude) mice. Conditions: endpoint: mean tumor weight change, higher = larger tumour. The method in brief:
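Activity is given as a ratio, with each measurement in the compound-treated arm divided by the matching measurement in vehicle-dosed controls. Tumour size or survival serves as the measured parameter.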
In general terms: Xenograft models place foreign cells or tissue in a host animal.

Setting [1] is: dose: 300.0 mg/kg/injection, schedule: Q04DX003 (sc), vehicle: saline.
The mark [2] stands for this setting: dose: 600.0 mg/kg/injection, schedule: Q04DX003 (sc), vehicle: saline.
Setting [3] is: dose: 1200.0 mg/kg/injection, schedule: Q04DX003 (sc), vehicle: saline.

`Nc1ncnc2c1ncn2C1OC(COP(=O)(O)O)C(O)C1O` (stereo unspecified): the T/C (dose: 100.0 mg/kg/injection, schedule: Q01DX010 (ip), vehicle: saline) was 85 % of control; the T/C (dose: 200.0 mg/kg/injection, schedule: Q01DX010 (ip), vehicle: saline) is 90 % of control; the T/C (dose: 333.33 mg/kg/injection, schedule: Q04DX003 (sc), vehicle: saline) is 124 % of control; the T/C (dose: 400.0 mg/kg/injection, schedule: Q01DX010 (ip), vehicle: saline) is 51 % of control; the T/C (dose: 666.65 mg/kg/injection, schedule: Q04DX003 (ip), vehicle: saline) is 106 % of control; the T/C (dose: 666.65 mg/kg/injection, schedule: Q04DX003 (sc), vehicle: saline) was 115 % of control. The T/C runs as follows: (dose: 800.0 mg/kg/injection, schedule: Q01DX010 (ip), vehicle: saline) 6 % of control; (dose: 1333.3 mg/kg/injection, schedule: Q04DX003 (ip), vehicle: saline) 49 % of control; (dose: 1333.3 mg/kg/injection, schedule: Q04DX003 (sc), vehicle: saline) 62 % of control; (dose: 1600.0 mg/kg/injection, schedule: Q01DX010 (sc), vehicle: saline) -36 % of control; (dose: 2666.6 mg/kg/injection, schedule: Q04DX003 (ip), vehicle: saline) 29 % of control; (dose: 2666.6 mg/kg/injection, schedule: Q04DX003 (sc), vehicle: saline) 76 % of control.

In the case of `CN(C)N=Nc1cccc(C(N)=O)c1`, the T/C is, setting by setting: (dose: 25.0 mg/kg/injection, schedule: Q04DX003 (sc), vehicle: Klucel (hydroxypropylcellulose) (HPC)) 100 % of control; (dose: 50.0 mg/kg/injection, schedule: Q04DX003 (sc), vehicle: Klucel (hydroxypropylcellulose) (HPC)) 52 % of control and 59 % of control and 64 % of control; (dose: 150.0 mg/kg/injection, schedule: Q04DX003 (sc), vehicle: Klucel (hydroxypropylcellulose) (HPC)) 4 % of control.

For the molecule `CSc1nc(=O)[nH]nc1SCc1ccccc1`, the T/C by setting is: (dose: 200.0 mg/kg/injection, schedule: Q04DX003 (sc), vehicle: Klucel (hydroxypropylcellulose) (HPC)) 100 % of control; (dose: 400.0 mg/kg/injection, schedule: Q04DX003 (sc), vehicle: Klucel (hydroxypropylcellulose) (HPC)) 87 % of control; (dose: 800.0 mg/kg/injection, schedule: Q04DX003 (sc), vehicle: Klucel (hydroxypropylcellulose) (HPC)) 69 % of control; (dose: 1600.0 mg/kg/injection, schedule: Q04DX003 (sc), vehicle: Klucel (hydroxypropylcellulose) (HPC)) 60 % of control.

Take `CCCCNC(C)[C@]1(O)Cc2c(O)c3c(c(O)c2[C@@H](OC2CC(N)C(O)C(C)O2)C1)C(=O)c1c(OC)cccc1C3=O` (stereo partly specified): the T/C is, setting by setting: (dose: 6.25 mg/kg/injection, schedule: Q01DX010 (sc), vehicle: saline) 59 % of control and 61 % of control; (dose: 18.0 mg/kg/injection, schedule: Q01DX010 (sc), vehicle: saline) 12 % of control.

`N=c1ccn2c(n1)OC1C(O)C(CO)OC12` (stereo unspecified): the T/C is, setting by setting: (dose: 150.0 mg/kg/injection, schedule: Q04DX003 (sc), vehicle: saline) 102 % of control; under setting [1], 84 % of control; (dose: 400.0 mg/kg/injection, schedule: Q04DX003 (sc), vehicle: saline) 95 % of control; under setting [2], 42 % of control; (dose: 600.0 mg/kg/injection, schedule: Q04DX003 (sc), vehicle: suspension in saline) 70 % of control; (dose: 800.0 mg/kg/injection, schedule: Q04DX003 (sc), vehicle: saline) 69 % of control. Besides, the T/C reads like this: under setting [3], 50 % of control; (dose: 1200.0 mg/kg/injection, schedule: Q04DX003 (sc), vehicle: suspension in saline) 55 % of control; (dose: 1600.0 mg/kg/injection, schedule: Q04DX003 (sc), vehicle: saline) 64 % of control; (dose: 2400.0 mg/kg/injection, schedule: Q04DX003 (sc), vehicle: suspension in saline) 70 % of control.

Take `O=c1c(O)c(-c2cc(O)c(O)c(O)c2)oc2cc(O)cc(O)c12`: the T/C is 117 % of control (dose: 3.0 mg/kg/injection, schedule: Q04DX003 (sc), vehicle: saline with Tween-80); 97 % of control (dose: 6.0 mg/kg/injection, schedule: Q04DX003 (sc), vehicle: saline with Tween-80); 108 % of control (dose: 12.0 mg/kg/injection, schedule: Q04DX003 (sc), vehicle: saline with Tween-80); 81 % of control (dose: 24.0 mg/kg/injection, schedule: Q04DX003 (sc), vehicle: saline with Tween-80).

`C[C@]12CCC(=O)C(O)=C1CC[C@@H]1[C@@H]2CC[C@]2(C)C(=O)CC[C@@H]12`: the T/C runs as follows: (dose: 35.0 mg/kg/injection, schedule: Q01DX010 (sc), vehicle: Klucel (hydroxypropylcellulose) (HPC)) 223 % of control; (dose: 70.0 mg/kg/injection, schedule: Q01DX010 (sc), vehicle: Klucel (hydroxypropylcellulose) (HPC)) 112 % of control; (dose: 280.0 mg/kg/injection, schedule: Q01DX010 (sc), vehicle: Klucel (hydroxypropylcellulose) (HPC)) 88 % of control.

Take `Nc1ccc(C(OC(=O)c2cc3ccccc3c(Cc3c(O)c(C(=O)OC(c4ccc(N)cc4)(c4ccc(N)cc4)c4ccc(N)cc4)cc4ccccc34)c2O)(c2ccc(N)cc2)c2ccc(N)cc2)cc1`: the T/C (dose: 72.0 mg/kg/injection, schedule: Q04DX003 (sc), vehicle: saline with Tween-80) was 97 % of control; the T/C (dose: 144.0 mg/kg/injection, schedule: Q04DX003 (sc), vehicle: saline with Tween-80) was 104 % of control; the T/C (dose: 288.0 mg/kg/injection, schedule: Q04DX003 (sc), vehicle: saline with Tween-80) was 87 % of control.

Consider `C1CCC(NC2CCCCC2)CC1`, for which the T/C runs as follows: (dose: 75.0 mg/kg/injection, schedule: Q04DX003 (ip), vehicle: saline) 119 % of control; (dose: 150.0 mg/kg/injection, schedule: Q04DX003 (ip), vehicle: saline) 174 % of control.

On to `N#CC(OC1OC(COC2OC(CO)C(O)C(O)C2O)C(O)C(O)C1O)c1ccccc1` (stereo unspecified), for which the T/C by setting is: under setting [1], 67 % of control; under setting [2], 83 % of control; under setting [3], 71 % of control; (dose: 2400.0 mg/kg/injection, schedule: Q04DX003 (sc), vehicle: saline) 75 % of control.

Turning to `Cn1ccc(=Nc2ccc(NC(=O)c3ccc(N=c4ccn(C)c5ccc([N+](=O)[O-])cc45)cc3[N+](=O)[O-])cc2)cc1`, the T/C is, setting by setting: (dose: 300.0 mg/kg/injection, schedule: Q04DX003 (sc), vehicle: saline + Tween-80 + alcohol) 123 % of control; (dose: 1200.0 mg/kg/injection, schedule: Q04DX003 (sc), vehicle: saline + Tween-80 + alcohol) 117 % of control; (dose: 2400.0 mg/kg/injection, schedule: Q04DX003 (sc), vehicle: saline + Tween-80 + alcohol) 69 % of control.

As for `CNc1nc(NC)nc(NC)n1`, the T/C was 164 % of control (dose: 25.0 mg/kg/injection, schedule: Q01DX010 (ip), vehicle: Klucel (hydroxypropylcellulose) (HPC)); 61 % of control (dose: 100.0 mg/kg/injection, schedule: Q01DX010 (ip), vehicle: Klucel (hydroxypropylcellulose) (HPC)); 93 % of control (dose: 100.0 mg/kg/injection, schedule: Q01DX010 (sc), vehicle: Klucel (hydroxypropylcellulose) (HPC)); 40 % of control (dose: 200.0 mg/kg/injection, schedule: Q01DX010 (ip), vehicle: Klucel (hydroxypropylcellulose) (HPC)).

Take `COc1cc(C(=O)N/N=C/c2cccc([N+](=O)[O-])c2)cc(OC)c1OC`: the T/C (dose: 150.0 mg/kg/injection, schedule: Q04DX003 (sc), vehicle: saline with Tween-80) is 178 % of control; the T/C (dose: 300.0 mg/kg/injection, schedule: Q04DX003 (sc), vehicle: saline with Tween-80) was 114 % of control; the T/C (dose: 600.0 mg/kg/injection, schedule: Q04DX003 (sc), vehicle: saline with Tween-80) was 67 % of control; the T/C (dose: 1200.0 mg/kg/injection, schedule: Q04DX003 (sc), vehicle: saline with Tween-80) is 108 % of control.

For the molecule `Cc1cc2nc3[nH]c4ccccc4c3nc2cc1C`, the T/C is 92 % of control (dose: 100.0 mg/kg/injection, schedule: Q01DX010 (sc), vehicle: saline); 103 % of control (dose: 200.0 mg/kg/injection, schedule: Q01DX010 (sc), vehicle: saline); 63 % of control (dose: 400.0 mg/kg/injection, schedule: Q01DX010 (sc), vehicle: saline); 69 % of control (dose: 800.0 mg/kg/injection, schedule: Q01DX010 (sc), vehicle: saline).

Consider `Cc1ccc2c(c1)N=C(Nc1ccccc1)N=S2(C)=O` (stereo unspecified), for which the T/C by setting is: (dose: 100.0 mg/kg/injection, schedule: Q04DX003 (sc), vehicle: saline with Tween-80) 79 % of control; (dose: 200.0 mg/kg/injection, schedule: Q04DX003 (sc), vehicle: saline with Tween-80) 78 % of control; (dose: 400.0 mg/kg/injection, schedule: Q04DX003 (sc), vehicle: saline with Tween-80) 75 % of control; (dose: 800.0 mg/kg/injection, schedule: Q04DX003 (sc), vehicle: saline with Tween-80) 60 % of control.
